Source: publication PMC11191095, “QSAR Reveals Decreased Lipophilicity of Polar Residues Determines the Selectivity of Antimicrobial Peptide Activity” (ACS Omega, 2024)
Where a SMILES comes first, the peptide text is derived from it.

Legend:
[1] = test system: S. aureus (MRSA) 1199B; experiment: microbe, parasite or virus in culture; type: cell-based, Staphylococcus aureus; details: S. aureus (MRSA) 1199B (R); shown in µM
Summary of the method: (§1)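 Peptides 128→2 μg/mL, 2-fold series; inoculum ~5 × 10^5 CFU/mL from overnight culture (OD600 0.01, mixed 1:1). MHB non-cation-adjusted for bacteria, RPMI 1640 + 2% glucose for fungi. 37 °C, 20 h, OD600. MIC50/MIC90 at 50%/90% inhibition; n ≥ 3.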

[2] = RP-HPLC ElutionTime as indicator of hydrophobicity; type: physicochemical; details: indicator of overall hydrophobicity; semipreparative RP-HPLC, Waters SymmetryPrep C8, water/ACN gradient with 0.1% TFA, 8 mL/min, 25 °C, 254 nm
Procedure: Crude peptides, made up to 10 mg/mL in 0.1% TFA (v/v) in ddH2O, were subjected to preparative RP-HPLC purification on an Agilent 1100 system, with elution in gradient. A gradient program at a flow rate of 8 mL/min and column temperature of 25 °C was used to achieve elution with solvent A (0.1% trifluoroacetic acid (TFA) in water (v/v)) and solvent B (0.1% TFA in 100% acetonitrile (ACN) (v/v)). The elution program was as follows: (1) At 0–73 min, 100% solvent A to 0% solvent B; (2) at 73–77 min, 40% solvent A to 60% solvent B; (3) at 77–93 min, 10% solvent A to 90% solvent B; (4) at 93–105 min, 100% solvent A to 0% solvent B. Data collected were the retention time of the major fraction for each peptide in minutes as RP-HPLC ElutionTime (ElutionTime). Absorbance was detected at 254 nm, and fractions were collected manually. The fractions collected were spun in a speed-vac to remove ACN and the contents lyophilized. After freeze-drying for 24 h the peptides were dissolved in 10% (v/v) acetic acid before being lyophilized for a second time and then stored at −20 °C.
Molecular descriptors used in the QSAR analysis included: charge, sequence length, overall lipophilicity (L), lipophilicity contributed by the polar or nonpolar residues (LP and LN), summation of the side chain surface areas of the total peptide, polar or nonpolar residues (SCSA, SCSAP, and SCSAN), the molecular weight of the entire peptide, polar or nonpolar residues (Mw, MwP, and MwN), count of small lipophilic residues (CSL) or aromatic residues (CAR), the total number of hydrogen bond donor and acceptor centers (HBtot, HBdon, and HBacc), the total number of rotatable bonds (#RotBonds) and various amphipathicity descriptors (LP/L, LP/LN, L/LN, Q/L, Q/LN, SCSAP/SCSAN, MwP/MwN, Q/CSL, and Q/CAR) (Suppl. Table S1). Experimentally determined characteristics included ElutionTime as an indicator of overall peptide hydrophobicity and the CD structure of each peptide determined in POPG/POPE lipids representing Gram-negative membranes, POPG lipids for Gram-positive membranes, and SDS micelles for fungal membranes. AMPs with an α-helical structure were labeled 4, β-sheets were labeled 3, β-turns and mixed conformations were labeled 2, and disordered structures were labeled 1.

[3] = test system: C. auris TDG 1912; experiment: microbe, parasite or virus in culture; type: cell-based, Candida auris
Summary of the method: as §1

[4] = test system: C. krusei NCPF 3876; experiment: microbe, parasite or virus in culture; type: cell-based
Summary of the method: as §1

[5] = test system: C. parapsilosis NCPF 3209; experiment: microbe, parasite or virus in culture; type: cell-based
Summary of the method: as §1

[6] = test system: C. glabrata NCPF 8018; experiment: microbe, parasite or virus in culture; type: cell-based
Summary of the method: as §1

[7] = test system: C. tropicalis NCPF 8760; experiment: microbe, parasite or virus in culture; type: cell-based
Summary of the method: as §1

[8] = test system: C. albicans NCPF 3281; experiment: microbe, parasite or virus in culture; type: cell-based
Summary of the method: as §1

[9] = test system: eight Gram-negative, four Gram-positive bacteria, and six fungi; experiment: Antimicrobial screening against panel of 18 pathogens; type: cell-based; details: 128 to 2 μg/mL, 37 °C, 20 h
Procedure: Antimicrobial activity was evaluated against a panel of 18 pathogens consisting of eight Gram-negative strains (E. coli NCTC 12923, E. coli LEC001, Pseudomonas aeruginosa PAO1, P. aeruginosa NCTC 13437, Acinetobacter baumannii ATCC 17978, A. baumannii AYE, Klebsiella pneumoniae M6, K. pneumoniae NCTC 13368), four Gram-positive strains (Staphylococcus aureus ATCC 9144, S. aureus NCTC 13616, S. aureus USA300, S. aureus 1199B) and six fungi (Candida auris TDG 1912, C. albicans NCPF 8018, C. krusei NCPF 3876, C. tropicalis NCPF 8760, and C. parapsilosis NCPF 3209). Pathogens were grown in noncation adjusted Mueller Hinton broth (MHB, for bacteria) or Roswell Park Memorial Institute (RPMI 1640) + 2% glucose (for fungi) at 37 °C with 180 rpm shaking and maintained on solid media (tryptic soy agar for bacteria and Sabouraud dextrose agar for fungi). For an antibiogram, see Suppl.
The 46 peptides were serially diluted (128 to 2 μg/mL) in media down polypropylene 96-well plates. […] Plates were incubated at 37 °C for 20 h, and the optical density was determined spectrophotometrically at 600 nm. Minimum inhibition concentrations (MICs) were determined from a minimum of three biological repeats and are reported in μg/mL as well as μM. […]

Row | SMILES | ElutionTime (RP-HPLC retention time of major fraction) [2] [min] | Modal MIC50 ([4]; NCPF 3876, 20 h) [µM] | Modal MIC90 ([4]; NCPF 3876, 20 h) [µM] | Modal MIC50 ([5]; NCPF 3209, 20 h) [µM] | Modal MIC90 ([5]; NCPF 3209, 20 h) [µM] | Modal MIC50 ([6]; NCPF 8018, 20 h) [µM] | Modal MIC90 ([6]; NCPF 8018, 20 h) [µM] | Modal MIC50 ([7]; NCPF 8760, 20 h) [µM] | Modal MIC90 ([7]; NCPF 8760, 20 h) [µM] | Modal MIC50 ([8]; NCPF 3281, 20 h) [µM] | Modal MIC90 ([8]; NCPF 3281, 20 h) [µM] | antimicrobial activity in the screens [9] | further results
1 | CC(C)[C@H](NC(=O)CNC(=O)[C@H](CCCNC(=N)N)NC(=O)[C@@H](N)CCCNC(=N)N)C(=O)N[C@@H](CS)C(=O)N[C@@H](CCCNC(=N)N)C(=O)N[C@@H](CS)C(=O)N[C@H](C(=O)N[C@@H](CS)C(=O)N[C@@H](CCCNC(=N)N)C(=O)N[C@@H](CCCNC(=N)N)C(N)=O)C(C)C [BTD11a] (H-RRGVCRCVCRR-NH2; N-terminus assumed) | 16 | 23.5 | 23.5 | 2.9 | 11.8 | 11.8 | 23.5 | 0.7 | 1.5 | 23.5 | 47 |  | Modal MIC [1]: > 94 µM; Modal MIC50 ([3]; C. auris TDG 1912, 50% growth inhibition, RPMI 1640 + 2% glucose, 37 °C, 20 h, OD600): 64 µg/mL; Modal MIC50 ([3]; TDG 1912, 20 h): 47 µM; Modal MIC90 ([3]; TDG 1912, 20 h): > 94 µM; Modal MIC50 ([4]; C. krusei NCPF 3876, 50% growth inhibition, RPMI 1640 + 2% glucose, 37 °C, 20 h): 32 µg/mL; Modal MIC90 ([4]; C. krusei NCPF 3876, 90% growth inhibition, RPMI 1640 + 2% glucose, 37 °C, 20 h): 32 µg/mL; Modal MIC50 ([5]; C. parapsilosis NCPF 3209, 50% growth inhibition, RPMI 1640 + 2% glucose, 37 °C, 20 h): 4 µg/mL; Modal MIC90 ([5]; C. parapsilosis NCPF 3209, 90% growth inhibition, RPMI 1640 + 2% glucose, 37 °C, 20 h): 16 µg/mL; Modal MIC50 ([6]; C. glabrata NCPF 8018, 50% growth inhibition, RPMI 1640 + 2% glucose, 37 °C, 20 h): 16 µg/mL; Modal MIC90 ([6]; C. glabrata NCPF 8018, 90% growth inhibition, RPMI 1640 + 2% glucose, 37 °C, 20 h): 32 µg/mL; Modal MIC50 ([7]; C. tropicalis NCPF 8760, 50% growth inhibition, RPMI 1640 + 2% glucose, 37 °C, 20 h): 1 µg/mL; Modal MIC90 ([7]; C. tropicalis NCPF 8760, 90% growth inhibition, RPMI 1640 + 2% glucose, 37 °C, 20 h): 2 µg/mL; Modal MIC50 ([8]; C. albicans NCPF 3281, 50% growth inhibition, RPMI 1640 + 2% glucose, 37 °C, 20 h): 32 µg/mL; Modal MIC90 ([8]; C. albicans NCPF 3281, 90% growth inhibition, RPMI 1640 + 2% glucose, 37 °C, 20 h): 64 µg/mL
2 | CC(C)[C@H](NC(=O)[C@H](CS)NC(=O)[C@@H](N)CCCNC(=N)N)C(=O)N[C@@H](CS)C(=O)N[C@H](C(=O)N[C@@H](CCCNC(=N)N)C(=O)NCC(=O)N[C@@H](Cc1ccccc1)C(=O)N[C@@H](CS)C(=O)O)[C@@H](C)O [ThetaDefA] (H-RCVCTRGFC-OH; N-terminus and C-terminus assumed) | 22 | > 122.6 | > 122.6 | > 122.6 | > 122.6 | > 122.6 | > 122.6 | > 122.6 | > 122.6 | > 122.6 | > 122.6 | no activity | 
3 | CC(C)[C@H](NC(=O)CNC(=O)[C@H](CCCNC(=N)N)NC(=O)[C@H](CCCNC(=N)N)NC(=O)[C@H](CS)NC(=O)[C@@H](NC(=O)[C@H](CS)NC(=O)[C@@H](N)CCCNC(=N)N)C(C)C)C(=O)N[C@@H](CS)C(=O)O [ThetaDefB] (H-RCVCRRGVC-OH; N-terminus and C-terminus assumed) | 20 | > 116.4 | > 116.4 | > 116.4 | > 116.4 | > 116.4 | > 116.4 | > 116.4 | > 116.4 | > 116.4 | > 116.4 | no activity | 
